Assay results as given in publication PMC11558128 (Advanced Science, 2024).
Where two headings read alike, the source gives them in different places. Positions of bridges follow the written chain, without caps; N, C: chain ends. Residues, ends and D or L forms follow the SMILES beside them.

Key:
[1] = test system: acutely isolated rat cardiomyocytes; conditions: 3 mM, n = 6
rKv4.3 = molecular target: T1, rKv4.3 (Rattus norvegicus, UniProt Q62897); experiment: cell-based
T1 construct: expressed in transfected cells; host or cells: HEK293T
T1 sequence (Q62897 1-655): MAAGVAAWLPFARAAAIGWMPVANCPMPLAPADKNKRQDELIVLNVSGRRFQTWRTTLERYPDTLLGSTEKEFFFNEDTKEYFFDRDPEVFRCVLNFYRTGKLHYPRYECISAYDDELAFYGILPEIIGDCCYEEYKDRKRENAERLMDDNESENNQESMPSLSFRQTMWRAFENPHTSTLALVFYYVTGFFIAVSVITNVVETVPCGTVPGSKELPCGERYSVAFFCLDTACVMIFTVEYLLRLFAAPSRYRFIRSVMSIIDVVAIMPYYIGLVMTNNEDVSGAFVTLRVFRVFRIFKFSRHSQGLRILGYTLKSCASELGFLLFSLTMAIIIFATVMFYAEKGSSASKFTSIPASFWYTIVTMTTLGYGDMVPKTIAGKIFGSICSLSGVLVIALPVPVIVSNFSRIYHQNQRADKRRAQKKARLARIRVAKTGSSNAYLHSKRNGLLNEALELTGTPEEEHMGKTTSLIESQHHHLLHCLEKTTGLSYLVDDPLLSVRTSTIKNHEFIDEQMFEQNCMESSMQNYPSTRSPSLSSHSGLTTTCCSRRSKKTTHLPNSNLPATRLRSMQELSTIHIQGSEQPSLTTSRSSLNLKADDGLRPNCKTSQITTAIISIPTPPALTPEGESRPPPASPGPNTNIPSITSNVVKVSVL

rKv4.2 = molecular target: T2, rKv4.2 (Rattus norvegicus, UniProt Q63881); experiment: cell-based; conditions: SEM; for IC50: whole-cell patch clamp, HEK293T, n = 3-8
T2 construct: expressed in transfected cells; host or cells: HEK293T
T2 sequence (Q63881 1-630): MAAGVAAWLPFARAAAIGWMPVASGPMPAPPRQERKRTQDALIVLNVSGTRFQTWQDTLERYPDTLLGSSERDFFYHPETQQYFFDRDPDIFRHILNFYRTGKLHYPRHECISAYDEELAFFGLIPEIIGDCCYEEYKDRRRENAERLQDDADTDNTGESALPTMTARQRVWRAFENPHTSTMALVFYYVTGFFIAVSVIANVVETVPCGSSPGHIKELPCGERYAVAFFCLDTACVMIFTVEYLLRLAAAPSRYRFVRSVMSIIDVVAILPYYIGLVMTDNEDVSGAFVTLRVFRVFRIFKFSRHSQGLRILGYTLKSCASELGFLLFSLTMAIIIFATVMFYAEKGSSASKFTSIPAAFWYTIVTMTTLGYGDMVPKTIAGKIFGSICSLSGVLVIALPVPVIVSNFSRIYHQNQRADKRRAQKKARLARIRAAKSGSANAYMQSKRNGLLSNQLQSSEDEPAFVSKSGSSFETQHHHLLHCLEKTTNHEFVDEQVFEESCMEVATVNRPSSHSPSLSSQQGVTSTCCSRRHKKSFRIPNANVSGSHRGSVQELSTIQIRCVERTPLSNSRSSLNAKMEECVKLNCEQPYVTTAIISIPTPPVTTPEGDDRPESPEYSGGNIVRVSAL

hNav1.7 = molecular target: T3, hNav1.7 (Homo sapiens, UniProt Q15858); experiment: cell-based; conditions: whole-cell patch clamp, HEK293T, SEM
T3 construct: expressed in transfected cells; host or cells: HEK293T
T3 sequence (O60939 30-215): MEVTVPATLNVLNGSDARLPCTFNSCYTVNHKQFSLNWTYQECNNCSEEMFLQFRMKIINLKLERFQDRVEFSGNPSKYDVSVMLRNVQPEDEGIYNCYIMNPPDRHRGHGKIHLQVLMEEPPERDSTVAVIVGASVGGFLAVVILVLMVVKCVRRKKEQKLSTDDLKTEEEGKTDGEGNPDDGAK
T3 sequence (Q15858 other isoform, or with tags, fused parts or gaps): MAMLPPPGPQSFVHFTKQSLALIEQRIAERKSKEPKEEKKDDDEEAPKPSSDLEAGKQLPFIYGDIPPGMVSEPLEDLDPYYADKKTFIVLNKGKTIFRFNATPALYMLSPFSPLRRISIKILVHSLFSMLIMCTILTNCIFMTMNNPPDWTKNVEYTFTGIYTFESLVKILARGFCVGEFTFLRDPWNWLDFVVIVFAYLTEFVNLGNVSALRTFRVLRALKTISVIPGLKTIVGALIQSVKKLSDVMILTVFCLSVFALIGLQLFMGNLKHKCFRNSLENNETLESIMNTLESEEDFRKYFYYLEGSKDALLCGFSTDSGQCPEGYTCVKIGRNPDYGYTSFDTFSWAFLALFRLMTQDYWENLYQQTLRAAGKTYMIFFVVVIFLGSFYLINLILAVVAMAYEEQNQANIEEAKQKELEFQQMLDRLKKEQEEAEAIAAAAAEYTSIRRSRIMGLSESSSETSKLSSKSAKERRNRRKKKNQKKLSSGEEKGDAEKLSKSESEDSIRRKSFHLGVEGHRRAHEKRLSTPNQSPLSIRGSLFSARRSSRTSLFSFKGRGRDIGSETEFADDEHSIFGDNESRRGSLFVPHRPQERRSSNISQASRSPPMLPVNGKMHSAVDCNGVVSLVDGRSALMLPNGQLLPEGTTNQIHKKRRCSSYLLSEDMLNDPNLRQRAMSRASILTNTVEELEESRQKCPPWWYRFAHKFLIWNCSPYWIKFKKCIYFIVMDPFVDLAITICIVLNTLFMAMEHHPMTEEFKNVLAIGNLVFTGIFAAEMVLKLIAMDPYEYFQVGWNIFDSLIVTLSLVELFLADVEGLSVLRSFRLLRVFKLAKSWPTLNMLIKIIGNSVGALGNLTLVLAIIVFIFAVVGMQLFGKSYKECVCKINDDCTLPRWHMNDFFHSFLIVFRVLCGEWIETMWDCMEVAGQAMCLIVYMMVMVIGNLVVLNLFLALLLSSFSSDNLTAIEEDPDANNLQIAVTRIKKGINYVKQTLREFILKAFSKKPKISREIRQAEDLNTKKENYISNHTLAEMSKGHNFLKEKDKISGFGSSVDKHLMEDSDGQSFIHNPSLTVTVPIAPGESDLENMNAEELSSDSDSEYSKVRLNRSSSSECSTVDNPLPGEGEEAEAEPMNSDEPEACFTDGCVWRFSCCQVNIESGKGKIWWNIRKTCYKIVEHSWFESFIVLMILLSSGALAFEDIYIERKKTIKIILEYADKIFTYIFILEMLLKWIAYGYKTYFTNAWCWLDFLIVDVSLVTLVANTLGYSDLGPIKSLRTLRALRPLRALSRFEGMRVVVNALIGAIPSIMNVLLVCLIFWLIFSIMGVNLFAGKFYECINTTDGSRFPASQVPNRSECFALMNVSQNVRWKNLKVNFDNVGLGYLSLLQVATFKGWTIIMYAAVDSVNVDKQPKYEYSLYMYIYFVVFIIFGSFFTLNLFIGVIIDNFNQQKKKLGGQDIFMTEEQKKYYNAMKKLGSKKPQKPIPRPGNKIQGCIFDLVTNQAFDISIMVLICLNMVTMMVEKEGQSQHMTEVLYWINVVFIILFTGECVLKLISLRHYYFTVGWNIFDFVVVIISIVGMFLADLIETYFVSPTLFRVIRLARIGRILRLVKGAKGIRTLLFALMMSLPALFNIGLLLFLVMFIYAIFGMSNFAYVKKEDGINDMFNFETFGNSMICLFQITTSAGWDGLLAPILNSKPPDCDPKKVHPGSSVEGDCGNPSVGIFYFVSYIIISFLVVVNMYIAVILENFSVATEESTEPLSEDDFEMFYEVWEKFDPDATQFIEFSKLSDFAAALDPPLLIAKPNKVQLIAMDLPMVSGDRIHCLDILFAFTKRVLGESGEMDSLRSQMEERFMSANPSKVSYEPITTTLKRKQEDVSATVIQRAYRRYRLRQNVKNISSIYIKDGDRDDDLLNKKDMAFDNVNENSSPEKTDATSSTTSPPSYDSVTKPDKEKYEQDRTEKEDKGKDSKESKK
T3 sequence (Q07699 19-218, further chain): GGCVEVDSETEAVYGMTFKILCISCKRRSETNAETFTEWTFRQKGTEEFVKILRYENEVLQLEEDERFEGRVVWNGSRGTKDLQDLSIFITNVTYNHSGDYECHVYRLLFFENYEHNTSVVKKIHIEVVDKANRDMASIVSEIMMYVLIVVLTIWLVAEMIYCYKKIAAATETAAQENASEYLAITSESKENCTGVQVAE

[2] = same toxin concentrations (footnote b160), mean ± S.E.M., SEM
[3] = mean ± SEM, read-out: IC50 on rKv4.2 WT
[4] = mean ± SEM, this study, read-out: IC50 on hNav1.7

Nc1ccncc1 [4-AP, 4-aminopyridine]
effect on action potential duration (APD), 4-AP [1]: significantly prolonged

CC(C)C[C@H](NC(=O)[C@H](CC(=O)O)NC(=O)[C@H](Cc1ccc(O)cc1)NC(=O)[C@H](CCCCN)NC(=O)[C@@H]1CSSC[C@@H]2NC(=O)[C@H](CCC(N)=O)NC(=O)[C@H](CC(=O)O)NC(=O)[C@H](CC(N)=O)NC(=O)[C@H](CO)NC(=O)[C@@H]3CCCN3C(=O)[C@H](CC(N)=O)NC(=O)[C@@H]3CSSC[C@H](NC(=O)[C@H](C(C)C)NC(=O)[C@H](CC(C)C)NC(=O)[C@H](CO)NC(=O)[C@H](CO)NC(=O)[C@H](CO)NC(=O)[C@H](CCCCN)NC(=O)[C@H](CSSC[C@H](NC(=O)[C@H](C)N)C(=O)N[C@@H](CC(C)C)C(=O)NCC(=O)N[C@@H](Cc4ccccc4)C(=O)NCC(=O)N[C@@H](CCC(=O)O)C(=O)N[C@@H](CCCCN)C(=O)N3)NC2=O)C(=O)N[C@@H](CO)C(=O)N[C@@H](CCC(N)=O)C(=O)N[C@@H](CCCCN)C(=O)N[C@@H](Cc2c[nH]cn2)C(=O)N[C@@H](CCCCN)C(=O)N[C@@H](Cc2c[nH]c3ccccc23)C(=O)N1)C(N)=O [Ca2a]
rKv4.3 voltage dependence of activation, V1/2 with toxin (rKv4.3; SEM): 59.0±3.0 mV | rKv4.3 voltage dependence of inactivation, V1/2 with toxin (rKv4.3; SEM): -48.1±2.0 mV | rKv4.3 voltage dependence of activation, κ with toxin (rKv4.3; [2]): 12.2±0.9 mV | rKv4.3 voltage dependence of inactivation, κ with toxin (rKv4.3; [2]): 4.5±0.2 mV | influence on the steady-state inactivation of rKv4.3 (rKv4.3; sub-saturation concentration): almost no influence | Hill coefficients on rKv4.2 (rKv4.2; Hill fit of concentration-response curves, mean ± S.E.M., n = 4-8): 1.05 ± 0.17 | rKv4.2 voltage dependence of activation, V1/2 with toxin (rKv4.2): 42.0±2.1 mV | rKv4.2 voltage dependence of inactivation, V1/2 with toxin (rKv4.2): -54.3±1.4 mV

CC(C)C[C@H](NC(=O)[C@H](Cc1ccc(O)cc1)NC(=O)[C@@H](NC(=O)[C@H](CCCCN)NC(=O)[C@@H]1CSSC[C@@H]2NC(=O)[C@H](CCC(=O)O)NC(=O)[C@H](CC(N)=O)NC(=O)[C@H](CCCCN)NC(=O)CNC(=O)[C@@H]3CCCN3C(=O)[C@H]([C@@H](C)O)NC(=O)[C@@H]3CSSC[C@H](NC(=O)[C@H](C)NC(=O)[C@H](Cc4ccc(O)cc4)NC(=O)[C@H](C)NC(=O)[C@@H]4CCCN4C(=O)[C@H](CSSC[C@H](NC(=O)CN)C(=O)N[C@@H](CCCCN)C(=O)NCC(=O)N[C@@H](Cc4ccccc4)C(=O)NCC(=O)N[C@@H](CC(=O)O)C(=O)N[C@@H](CO)C(=O)N3)NC2=O)C(=O)N[C@@H](CO)C(=O)N[C@@H](CO)C(=O)N[C@@H](CCCCN)C(=O)N[C@@H](Cc2c[nH]cn2)C(=O)N[C@@H](CCCCN)C(=O)N[C@@H](Cc2c[nH]c3ccccc23)C(=O)N1)C(C)C)C(N)=O [N19A] (H-GCKGFGDSCTPGKNECCPAYACSSKHKWCKVYL-NH2; disulfide 2-17, 9-22, 16-29)
IC50 (rKv4.2; [3]): 0.064 ± 0.009 µM | IC50 (hNav1.7; [4]): 0.116 ± 0.009 µM

CC(C)C[C@H](NC(=O)[C@H](Cc1ccc(O)cc1)NC(=O)[C@@H](NC(=O)[C@H](CCCCN)NC(=O)[C@@H]1CSSC[C@@H]2NC(=O)[C@H](CCC(=O)O)NC(=O)[C@H](CC(N)=O)NC(=O)[C@H](CCCCN)NC(=O)CNC(=O)[C@@H]3CCCN3C(=O)[C@H]([C@@H](C)O)NC(=O)[C@@H]3CSSC[C@H](NC(=O)[C@H](C)NC(=O)[C@H](C)NC(=O)[C@H](CC(N)=O)NC(=O)[C@@H]4CCCN4C(=O)[C@H](CSSC[C@H](NC(=O)CN)C(=O)N[C@@H](CCCCN)C(=O)NCC(=O)N[C@@H](Cc4ccccc4)C(=O)NCC(=O)N[C@@H](CC(=O)O)C(=O)N[C@@H](CO)C(=O)N3)NC2=O)C(=O)N[C@@H](CO)C(=O)N[C@@H](CO)C(=O)N[C@@H](CCCCN)C(=O)N[C@@H](Cc2c[nH]cn2)C(=O)N[C@@H](CCCCN)C(=O)N[C@@H](Cc2c[nH]c3ccccc23)C(=O)N1)C(C)C)C(N)=O [Y20A] (H-GCKGFGDSCTPGKNECCPNAACSSKHKWCKVYL-NH2; disulfide 2-17, 9-22, 16-29)
IC50 (rKv4.2; [3]): 4 ± 2 µM | IC50 (hNav1.7; [4]): 7.16 ± 0.528 µM

CC(C)C[C@H](NC(=O)[C@H](Cc1ccc(O)cc1)NC(=O)[C@@H](NC(=O)[C@H](CCCCN)NC(=O)[C@@H]1CSSC[C@@H]2NC(=O)[C@H](CCC(=O)O)NC(=O)[C@H](CC(N)=O)NC(=O)[C@H](CCCCN)NC(=O)CNC(=O)[C@@H]3CCCN3C(=O)[C@H]([C@@H](C)O)NC(=O)[C@@H]3CSSC[C@H](NC(=O)[C@H](C)NC(=O)[C@H](Cc4c[nH]c5ccccc45)NC(=O)[C@H](CC(N)=O)NC(=O)[C@@H]4CCCN4C(=O)[C@H](CSSC[C@H](NC(=O)CN)C(=O)N[C@@H](CCCCN)C(=O)NCC(=O)N[C@@H](Cc4ccccc4)C(=O)NCC(=O)N[C@@H](CC(=O)O)C(=O)N[C@@H](CO)C(=O)N3)NC2=O)C(=O)N[C@@H](CO)C(=O)N[C@@H](CO)C(=O)N[C@@H](CCCCN)C(=O)N[C@@H](Cc2c[nH]cn2)C(=O)N[C@@H](CCCCN)C(=O)N[C@@H](Cc2c[nH]c3ccccc23)C(=O)N1)C(C)C)C(N)=O [Y20W] (H-GCKGFGDSCTPGKNECCPNWACSSKHKWCKVYL-NH2; disulfide 2-17, 9-22, 16-29)
IC50 (rKv4.2; [3]): 0.228 ± 0.033 µM | IC50 (hNav1.7; [4]): 0.495 ± 0.039 µM

CC(C)C[C@H](NC(=O)[C@H](C)NC(=O)[C@@H](NC(=O)[C@H](CCCCN)NC(=O)[C@@H]1CSSC[C@@H]2NC(=O)[C@H](CCC(=O)O)NC(=O)[C@H](CC(N)=O)NC(=O)[C@H](CCCCN)NC(=O)CNC(=O)[C@@H]3CCCN3C(=O)[C@H]([C@@H](C)O)NC(=O)[C@@H]3CSSC[C@H](NC(=O)[C@H](C)NC(=O)[C@H](Cc4ccc(O)cc4)NC(=O)[C@H](CC(N)=O)NC(=O)[C@@H]4CCCN4C(=O)[C@H](CSSC[C@H](NC(=O)CN)C(=O)N[C@@H](CCCCN)C(=O)NCC(=O)N[C@@H](Cc4ccccc4)C(=O)NCC(=O)N[C@@H](CC(=O)O)C(=O)N[C@@H](CO)C(=O)N3)NC2=O)C(=O)N[C@@H](CO)C(=O)N[C@@H](CO)C(=O)N[C@@H](CCCCN)C(=O)N[C@@H](Cc2c[nH]cn2)C(=O)N[C@@H](CCCCN)C(=O)N[C@@H](Cc2c[nH]c3ccccc23)C(=O)N1)C(C)C)C(N)=O [Y32A] (H-GCKGFGDSCTPGKNECCPNYACSSKHKWCKVAL-NH2; disulfide 2-17, 9-22, 16-29)
IC50 (rKv4.2; [3]): 1 ± 0.177 µM | IC50 (hNav1.7; [4]): 0.936 ± 0.123 µM

CC[C@H](C)[C@@H]1NC(=O)[C@@H]2CSSC[C@@H]3NC(=O)[C@H](C(C)C)NC(=O)[C@H](CC(C)C)NC(=O)[C@H](CC(N)=O)NC(=O)[C@@H]4CCCN4C(=O)[C@H](CCCNC(=N)N)NC(=O)[C@H](CSSC[C@H](NC(=O)[C@@H](N)CC(=O)O)C(=O)N[C@@H](CC(C)C)C(=O)NCC(=O)N[C@@H](C)C(=O)N[C@@H](Cc4ccccc4)C(=O)N[C@@H](CCCNC(=N)N)C(=O)N[C@@H](CCCCN)C(=O)N2)NC(=O)[C@H](CSSC[C@@H](C(=O)N[C@@H](CCCCN)C(=O)N[C@@H](Cc2ccc(O)cc2)C(=O)N[C@H](C(=O)N[C@@H](Cc2ccccc2)C(N)=O)C(C)C)NC(=O)[C@H](Cc2c[nH]c4ccccc24)NC(=O)[C@H](CCCNC(=N)N)NC(=O)[C@H](Cc2c[nH]cn2)NC(=O)[C@H](CC(C)C)NC(=O)[C@H](C)NC(=O)[C@H](CO)NC3=O)NC(=O)[C@H](CCCCN)NC(=O)[C@H](CC(=O)O)NC(=O)[C@H](CC(N)=O)NC(=O)[C@H](CC(=O)O)NC(=O)[C@@H]2CCCN2C1=O [mGpTx1-R25A] (H-DCLGAFRKCIPDNDKCCRPNLVCSALHRWCKYVF-NH2; disulfide 2-17, 9-23, 16-30)
IC50 (rKv4.2; held at -80 mV, step to 0 mV, mean ± S.E.M., read-out: IC50 for rKv4.2): 0.0572 ± 0.0062 µM | IC50 (hNav1.7; hNav1.7 with β1 and β2, held at -90 mV, step to 0 mV, mean ± S.E.M., n = 3-7, read-out: IC50 for hNav1.7): 0.0013 ± 0.0001 µM
